Legend:
MDPC-23 cells [1] = test: Cell death by necrosis (flow cytometry); format: cell-based; details: 24 h
Method: (§1) Immortalized odontoblast-like MDPC-23 cell line, frequently used for the evaluation of cytotoxicity of dental materials, was used to analyse the effect of different DMSO concentrations on pulpal cell viability. The cell culturing and methodology followed that described by Aranha et al. (2011). Briefly, DMEM culture medium with different concentrations of DMSO (0.05, 0.1, 0.3, 0.5 and 1.0 mM) were placed in contact with MDPC-23 cells (5×10^4 cells/cm^2) for 24 h. Pure DMEM was used in the control group. Twelve replicates were prepared in each group, except for flow cytometry analysis (n=8). Viable cell number (Trypan Blue), cell metabolism (production of succinic dehydrogenase enzyme-SDH, MTT assay) and cell death by necrosis (flow cytometry) were evaluated as described before (Ribeiro et al. 2010, Aranha et al. 2011).

[2] = tested on: gelatinases MMP-2 and MMP-9; test: Gelatin zymography; format: biochemical, human
Method: Gelatin zymography was performed in 10% SDS-PAGE containing 1 mg/ml labelled gelatin in a usual fashion (Invitrogen, Carlsbad, Calif., USA) (O'Grady et al. 1984). After the electrophoresis, SDS was removed by 2.5% Triton X-100 to renature the gelatinases. Gels were then incubated overnight at 37° C. in 50 mM Tris-HCl buffer (5 mM CaCl2, 1 μM ZnCl2, 0.02% NaN3, pH 7.5) zymography incubation buffer with 0%, 0.1%, 2.5%, 5%, 10% or 20% of DMSO to observe the effect of DMSO concentration on the MMP activity. The degradation of gelatin was visualized under UV light. Gels were also stained with 0.5% Coomassie Blue R-250. The intensities of the bands were quantified by ScionImage software (Scion Corporation, Frederick, Mass., USA). The analysis was done as triplicates, and relative amounts against 0% DMSO were calculated.

MDPC-23 cells [3] = test: Cell metabolism (SDH production, MTT assay); format: cell-based; details: 24 h
Method: as §1

MMP-2 [4] = molecular target: T1, MMP-2 (Homo sapiens, UniProt P08253); test: EnzChek Gelatinase/Collagenase Assay Kit; format: biochemical; details: 3% DMSO; APMA-activated MMP-2; 24 h incubation
T1 construct: made in house
T1 sequence (P08253 110-660): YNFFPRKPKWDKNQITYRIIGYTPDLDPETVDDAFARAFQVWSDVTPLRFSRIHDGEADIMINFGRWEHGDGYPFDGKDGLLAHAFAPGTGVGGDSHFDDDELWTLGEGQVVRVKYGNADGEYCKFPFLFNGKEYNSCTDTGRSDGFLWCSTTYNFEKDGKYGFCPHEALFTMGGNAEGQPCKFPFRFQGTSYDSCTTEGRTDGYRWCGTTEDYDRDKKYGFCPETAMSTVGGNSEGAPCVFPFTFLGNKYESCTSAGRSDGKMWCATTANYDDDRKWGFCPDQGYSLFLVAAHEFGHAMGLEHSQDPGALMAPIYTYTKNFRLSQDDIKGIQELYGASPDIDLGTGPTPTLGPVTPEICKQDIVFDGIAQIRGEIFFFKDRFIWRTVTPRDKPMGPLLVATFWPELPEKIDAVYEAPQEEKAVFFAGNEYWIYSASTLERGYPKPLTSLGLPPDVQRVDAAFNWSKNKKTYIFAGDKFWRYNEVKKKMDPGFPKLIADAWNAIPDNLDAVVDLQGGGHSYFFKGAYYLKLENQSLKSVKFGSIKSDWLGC
Method: (§2) EnzChek Gelatinase/Collagenase Assay Kit (Molecular Probes, Eugene, Oreg., USA) was used to detect the effect of DMSO on the gelatinolytic activities of MMP-2 and -9 according to manufacturer's protocol. Briefly, 3 ng of MMP-2 (purified from cell culture media), 3 ng MMP-9 (purified from cell culture media), and 5 ng of recombinant MMP-9 (Chemicon) were diluted into the reaction buffer (50 mM Tris-HCl, 150 mM NaCl, 5 mM CaCl2, 0.2 mM NaN3, pH 7.6) and incubated with quenched fluorescein-conjugated gelatin (50 μg/ml) and 0%, 0.01%, 0.1%, 0.5%, 1%, 2%, 3%, 4% or 5% of DMSO in a black-walled 96 well microplate at RT in dark. Fluorescent intensity indicating the gelatinolysis was measured at multiple time points with Fluoromax2/Micromax fluorometer (ISA Jobin Yvon-Spex, Edison, N.J., USA). Analyses were performed as quadruplicates. The relative intensities were calculated against 0% of DMSO.

MMP-2 [5] = test: EnzChek Gelatinase/Collagenase Assay Kit; format: biochemical; details: 4 to 5% DMSO; non-activated (no APMA) and activated (APMA) MMP-2
Method: as §2

[6] = tested on: dentin collagenolytic enzymes; test: Hydroxyproline release from demineralized dentin beams; format: biochemical
Method: Type I collagen contains about 10 mass % hydroxyproline (HYP), an amino acid almost non-existent in other proteins. Detection of HYP release form demineralized dentin beams was used to evaluate whether DMSO would be effective in inhibiting MMPs in dentin collagen matrix, using a method described in Carrilho et al. 2009. Seventy-six dentin beams (1 mm×1 mm×9 mm) were divided into four groups (n=19 per group) and demineralized. Each beam was individually incubated in a polypropylene tubes with 1 ml of medium containing 50 mmol/L HEPES, 5 mmol/L CaCl2 2H2O, 0.001 mmol/L ZnCl2, 150 mmol/L NaCl, and 3 mmol/L NaN3, pH 7.2, that ensures availability of Zn- and Ca-ions for MMP function. The control samples were incubated in a medium without DMSO: in two groups the beams were incubated with DMSO in medium with 0.001% and 0.01% concentrations. In one group, demineralized dentin beams were immersed in 5% DMSO for 15 minutes and then incubated in a medium without DMSO for the rest of the experiment. Tubes were incubated in a water-shaker bath at 37° C. for a week. Then the medium was completely removed and quantitated for HYP content according to the colorimetric absorbance method described by Jamall et al (1981). Fresh 1 mL of medium was replaced in each tube for additional three weeks of incubation, when the media was removed and analyzed for HYP content. HYP standards were prepared from a 1 mg/mL HYP stock solution in 50% isopropanol. The resulting amount of HYP (mg/mL) was used to estimate the percentage of solubilized (degraded) collagen assuming that 90% of the dry mass of demineralized dentin beams consisted of type I collagen and that 10 mass % of collagen is HYP (Carrilho et al. 2009).

MDPC-23 cells [7] = test: Viable cell number (Trypan Blue); format: cell-based; details: 24 h
Method: as §1

C[S+](C)[O-] [DMSO, dimethyl sulphoxide]
% Cell Death (necrosis, flow cytometry) (MDPC-23 cells [1]; 0.05 mM DMSO): 1.2 (0.8-1.6) a %
% Cell Death (necrosis, flow cytometry) (MDPC-23 cells [1]; 0.1 mM DMSO): 1.3 (0.9-1.6) a %
% Cell Death (necrosis, flow cytometry) (MDPC-23 cells [1]; 0.3 mM DMSO): 1.2 (0.6-1.6) a %
% Cell Death (necrosis, flow cytometry) (MDPC-23 cells [1]; 0.5 mM DMSO): 1.3 (0.8-1.5) a %
% Cell Death (necrosis, flow cytometry) (MDPC-23 cells [1]; 1.0 mM DMSO): 1.3 (0.8-1.6) a %
Cell death by necrosis vs control (MDPC-23 cells [1]; 0.05-1.0 mM DMSO, p>0.05): no differences
Effect on gelatinase activity (disappearance of bands) ([2]; 0.1-20% DMSO in incubation buffer, recombinant human MMP-2 and MMP-9): inhibitory activity
MMP inhibition ([2]; 5% DMSO (FIG. 12, FIG. 13)): up to 75.3%
MMP inhibition ([2]; 20% DMSO (FIG. 12, FIG. 13)): up to 94.7%
Cell metabolism (SDH production, MTT assay) (MDPC-23 cells [3]; 0.05 mM DMSO): 2.343 (2.287-2.387) ab
Cell metabolism (SDH production, MTT assay) (MDPC-23 cells [3]; 0.1 mM DMSO): 2.468 (2.359-2.557) a
Cell metabolism (SDH production, MTT assay) (MDPC-23 cells [3]; 0.3 mM DMSO): 2.484 (2.399-2.520) a
Cell metabolism (SDH production, MTT assay) (MDPC-23 cells [3]; 0.5 mM DMSO): 2.478 (2.294-2.542) ab
Cell metabolism (SDH production, MTT assay) (MDPC-23 cells [3]; 1.0 mM DMSO): 2.410 (2.119-2.501) ab
Production of SDH enzyme vs control (MDPC-23 cells [3]; 0.05-1.0 mM DMSO, not concentration-dependent): Slight increase
Inhibition of MMP-2 gelatinolytic activity (MMP-2 [4]): statistically significant inhibition
Inhibition of MMP-2 gelatinolytic activity (MMP-2 [5]): theoretical maximum inhibition
HYP release into the medium ([6]; 0.001% DMSO in medium, 4-week incubation): significantly decreased
HYP release into the medium ([6]; 0.01% DMSO in medium, 4-week incubation): significantly decreased
HYP release into the medium ([6]; 15 minute immersion in 5% DMSO prior the 4-week incubation): significantly decreased
Demineralized dentin collagen degradation by matrix enzymes ([6]; DMSO (FIG. 14)): significant decrease in collagen degradation
Cell number (viable cells, Trypan Blue) (MDPC-23 cells [7]; 0.05 mM DMSO): 3.7 (0.9) a
Cell number (viable cells, Trypan Blue) (MDPC-23 cells [7]; 0.1 mM DMSO): 4.3 (1.1) a
Cell number (viable cells, Trypan Blue) (MDPC-23 cells [7]; 0.3 mM DMSO): 4.1 (1.4) a
Cell number (viable cells, Trypan Blue) (MDPC-23 cells [7]; 0.5 mM DMSO): 4.1 (0.9) a
Cell number (viable cells, Trypan Blue) (MDPC-23 cells [7]; 1.0 mM DMSO): 4.1 (1.3) a
Number of cells vs control (MDPC-23 cells [7]; 0.05-1.0 mM DMSO, p>0.05): no differences
Cytotoxicity to odontoblast-like cells (MDPC-23 cells [7]; direct contact, 0.05-1.0 mM DMSO): not cytotoxic or cytophatic
